Experimental data reported in ChEMBL document CHEMBL5724914, “Linking interpersonal differences in gut microbiota composition and drug biotransformation activity” (2024).

Assays:
[1] = human gut metagenome, 24 h, 2 µM
[2] = The drug is tested on WLS-310 corresponding to human gut metagenome with ENA study accession number: PRJEB37062 and ENA sample accession number: ERS12561785 for biotransformation under anaerobic condition. The drug concentrations were measured over 9 timepoints collected between 0 and 24 hours of incubation by liquid-chromatography-coupled mass spectrometry (LC–MS); conditions: 2 µM
[3] = human gut metagenome, 24 h, 2 µM; remark: listed apart in the source
[4] = human gut metagenome, 24 h, 2 µM; remark: listed apart in the source
[5] = human gut metagenome, 24 h, 2 µM; remark: listed apart in the source
[6] = The drug is tested on WLS-038 corresponding to human gut metagenome with ENA study accession number: PRJEB37062 and ENA sample accession number: ERS12561745 for biotransformation under anaerobic condition. The drug concentrations were measured over 9 timepoints collected between 0 and 24 hours of incubation by liquid-chromatography-coupled mass spectrometry (LC–MS); conditions: 2 µM
[7] = The drug is tested on Z-023 corresponding to metagenome with ENA study accession number: PRJEB37062 and ENA sample accession number: ERS12561822 for biotransformation under anaerobic condition. The drug concentrations were measured over 9 timepoints collected between 0 and 24 hours of incubation by liquid-chromatography-coupled mass spectrometry (LC–MS); conditions: 2 µM
[8] = human gut metagenome, 24 h, 2 µM; remark: listed apart in the source
[9] = human gut metagenome, 24 h, 2 µM; remark: listed apart in the source
[10] = human gut metagenome, 24 h, 2 µM; remark: listed apart in the source
[11] = human gut metagenome, 24 h, 2 µM; remark: listed apart in the source
[12] = The drug is tested on Z-013 corresponding to rabbit gut metagenome with ENA study accession number: PRJEB37062 and ENA sample accession number: ERS12561813 for biotransformation under anaerobic condition. The drug concentrations were measured over 9 timepoints collected between 0 and 24 hours of incubation by liquid-chromatography-coupled mass spectrometry (LC–MS); conditions: 2 µM
[13] = The drug is tested on Z-008 corresponding to metagenome with ENA study accession number: PRJEB37062 and ENA sample accession number: ERS12561808 for biotransformation under anaerobic condition. The drug concentrations were measured over 9 timepoints collected between 0 and 24 hours of incubation by liquid-chromatography-coupled mass spectrometry (LC–MS); conditions: 2 µM
[14] = human gut metagenome, 24 h, 2 µM; remark: listed apart in the source
[15] = The drug is tested on WLS-039 corresponding to human gut metagenome with ENA study accession number: PRJEB37062 and ENA sample accession number: ERS12561746 for biotransformation under anaerobic condition. The drug concentrations were measured over 9 timepoints collected between 0 and 24 hours of incubation by liquid-chromatography-coupled mass spectrometry (LC–MS); conditions: 2 µM
[16] = human gut metagenome, 24 h, 2 µM; remark: listed apart in the source
[17] = The drug is tested on WLS-090 corresponding to human gut metagenome with ENA study accession number: PRJEB37062 and ENA sample accession number: ERS12561753 for biotransformation under anaerobic condition. The drug concentrations were measured over 9 timepoints collected between 0 and 24 hours of incubation by liquid-chromatography-coupled mass spectrometry (LC–MS); conditions: 2 µM
[18] = The drug is tested on WLS-007 corresponding to human gut metagenome with ENA study accession number: PRJEB37062 and ENA sample accession number: ERS12561742 for biotransformation under anaerobic condition. The drug concentrations were measured over 9 timepoints collected between 0 and 24 hours of incubation by liquid-chromatography-coupled mass spectrometry (LC–MS); conditions: 2 µM
[19] = human gut metagenome, 24 h, 2 µM; remark: listed apart in the source
[20] = The drug is tested on Z-010 corresponding to metagenome with ENA study accession number: PRJEB37062 and ENA sample accession number: ERS12561810 for biotransformation under anaerobic condition. The drug concentrations were measured over 9 timepoints collected between 0 and 24 hours of incubation by liquid-chromatography-coupled mass spectrometry (LC–MS); conditions: 2 µM
Note: call rule not given here.

For `CC(C)c1c(CN(C)C(C)Cc2ccccc2)n(C)n(-c2ccccc2)c1=O` (stereo not given) [FAMPROFAZONE], the “Bacterial Biotransformation” value [1] was “Compound metabolized”, the “Bacterial Biotransformation” value [2] was “Compound metabolized” and the “Bacterial Biotransformation” value [3] was “Compound metabolized”. For the same compound, the “Bacterial Biotransformation” value [4] was “Compound metabolized”, the “Bacterial Biotransformation” value [5] was “Compound metabolized” and the “Bacterial Biotransformation” value [6] was “Compound metabolized”. The “Bacterial Biotransformation” value [7] was “Compound metabolized”, the “Bacterial Biotransformation” value [8] was “Compound metabolized” and the “Bacterial Biotransformation” value [9] was “Compound metabolized”. For the same compound, the “Bacterial Biotransformation” value [10] was “Compound metabolized”, the “Bacterial Biotransformation” value [11] was “Compound metabolized” and the “Bacterial Biotransformation” value [12] was “Compound metabolized”. For the same compound, the “Bacterial Biotransformation” value [13] was “Compound metabolized”, the “Bacterial Biotransformation” value [14] was “Compound metabolized” and the “Bacterial Biotransformation” value [15] was “Compound metabolized”. For the same compound, the “Bacterial Biotransformation” value [16] was “Compound metabolized”, the “Bacterial Biotransformation” value [17] was “Compound metabolized” and the “Bacterial Biotransformation” value [18] was “Compound metabolized”. The “Bacterial Biotransformation” value [19] was “Compound metabolized” and the “Bacterial Biotransformation” value [20] was “Compound metabolized”.

For `COc1ccc(CN2CCNCC2)c(OC)c1OC.Cl.Cl` [TRIMETAZIDINE DIHYDROCHLORIDE], the “Bacterial Biotransformation” value [1] was “Compound NOT metabolized”, the “Bacterial Biotransformation” value [2] was “Compound NOT metabolized” and the “Bacterial Biotransformation” value [3] was “Compound NOT metabolized”. For the same compound, the “Bacterial Biotransformation” value [4] was “Compound NOT metabolized”, the “Bacterial Biotransformation” value [5] was “Compound NOT metabolized” and the “Bacterial Biotransformation” value [6] was “Compound NOT metabolized”. The “Bacterial Biotransformation” value [7] was “Compound NOT metabolized”, the “Bacterial Biotransformation” value [8] was “Compound NOT metabolized” and the “Bacterial Biotransformation” value [9] was “Compound NOT metabolized”. For the same compound, the “Bacterial Biotransformation” value [10] was “Compound NOT metabolized”, the “Bacterial Biotransformation” value [11] was “Compound NOT metabolized” and the “Bacterial Biotransformation” value [12] was “Compound NOT metabolized”. For the same compound, the “Bacterial Biotransformation” value [13] was “Compound NOT metabolized”, the “Bacterial Biotransformation” value [14] was “Compound NOT metabolized” and the “Bacterial Biotransformation” value [15] was “Compound NOT metabolized”. For the same compound, the “Bacterial Biotransformation” value [16] was “Compound NOT metabolized”, the “Bacterial Biotransformation” value [17] was “Compound NOT metabolized” and the “Bacterial Biotransformation” value [18] was “Compound NOT metabolized”. For the same compound, the “Bacterial Biotransformation” value [19] was “Compound NOT metabolized” and the “Bacterial Biotransformation” value [20] was “Compound NOT metabolized”.

With `COc1ccnc(C[S+]([O-])c2nc3ccc(OC(F)F)cc3[nH]2)c1OC` (stereo not given) [PANTOPRAZOLE] the “Bacterial Biotransformation” value [1] was “Compound metabolized”, the “Bacterial Biotransformation” value [2] was “Compound metabolized” and the “Bacterial Biotransformation” value [3] was “Compound metabolized”. For the same compound, the “Bacterial Biotransformation” value [4] was “Compound metabolized”, the “Bacterial Biotransformation” value [5] was “Compound metabolized” and the “Bacterial Biotransformation” value [6] was “Compound metabolized”. For the same compound, the “Bacterial Biotransformation” value [7] was “Compound metabolized”, the “Bacterial Biotransformation” value [8] was “Compound metabolized” and the “Bacterial Biotransformation” value [9] was “Compound metabolized”. For the same compound, the “Bacterial Biotransformation” value [10] was “Compound metabolized”, the “Bacterial Biotransformation” value [11] was “Compound metabolized” and the “Bacterial Biotransformation” value [12] was “Compound metabolized”. The “Bacterial Biotransformation” value [13] was “Compound metabolized”, the “Bacterial Biotransformation” value [14] was “Compound metabolized” and the “Bacterial Biotransformation” value [15] was “Compound metabolized”. For the same compound, the “Bacterial Biotransformation” value [16] was “Compound metabolized”, the “Bacterial Biotransformation” value [17] was “Compound metabolized” and the “Bacterial Biotransformation” value [18] was “Compound metabolized”. The “Bacterial Biotransformation” value [19] was “Compound metabolized” and the “Bacterial Biotransformation” value [20] was “Compound metabolized”.
